The text below walks through data of patent publication US20220229065A1, “SENSORS AND METHODS FOR RAPID MICROBIAL DETECTION” (BAMBU VAULT LLC, priority 2019, published 2022).

Data set [1] is described as follows: Retention of Epolight 1117 tetrakis aminium dye in particles during emulsification and evaporation. The data set is classed as physicochemical. The settings on record: retention in the particles during emulsion and evaporation process; surfactant as labelled. The source says:
In the emulsion method of encapsulation, a surfactant is necessary to help keep the emulsion stable. While Aerosol® TR-70 (sodium bis(tridecyl) sulfosuccinate) could be used as an emulsifier to prepare polymer particles encapsulating Epolight™ 1117 tetrakis aminium dye, TR-70 only provided limited stabilization effects on the tetrakis aminium dye. […] Reducing the amount of SDS in the aqueous phase led to lower Epolight™ 1117 retention and larger particle size (Table 2).

Data set [2] is described as follows: Additives that stabilize the dye within the particles. The data set is classed as physicochemical. Conditions: antioxidant additive in polymer matrix. An excerpt:
The loading of dyes within the particles is as high as possible without degrading the cohesion of the polymer. The additives that stabilize the dye within the particles have been studied.

The next data set relates to chymotrypsin. In words: Reaction of Formula (12) conjugate with chymotrypsin (color change, selectivity control). The data set is classed as biochemical. Conditions: 1.0 mg in 0.3 mL DMSO + 25 μL chymotrypsin. On the procedure: (§1) In four different vials, compound 4 (1.0 mg in each vial) was dissolved in DMSO (0.3 mL). To one vial, 25 μL of β-lactamase blend was added. To another vial 25 μL PBS was added as the negative control. To the other two vials 25 μL of papain and chymotrypsin were added separately.

The next data set addresses T1, papain (Carica papaya, UniProt P00784).
T1 sequence (P00784 134-345): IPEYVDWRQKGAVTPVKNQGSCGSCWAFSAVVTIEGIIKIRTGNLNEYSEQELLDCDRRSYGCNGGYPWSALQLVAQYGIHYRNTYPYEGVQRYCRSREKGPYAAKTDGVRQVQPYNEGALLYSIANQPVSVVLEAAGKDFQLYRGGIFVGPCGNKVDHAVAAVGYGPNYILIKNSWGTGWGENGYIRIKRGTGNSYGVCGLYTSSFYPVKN
The experiment in a line: Reaction of Formula (12) conjugate with papain (color change, selectivity control). The data set is classed as biochemical. Conditions: 1.0 mg in 0.3 mL DMSO + 25 μL papain. How it is done: as §1

Another data set relates to β-lactamase blend. In words: Reaction of Formula (12) conjugate with β-lactamase (color change in vial). The data set is classed as biochemical. How it is done: as §1
Where [3] appears, read: 1.0 mg in 0.3 mL DMSO + 25 μL β-lactamase blend.

In the case of `CCCCCCCCCCCCCOC(=O)CC(C(=O)OCCCCCCCCCCCCC)S(=O)(=O)O.[Na]` (centres unmarked) [TR-70, sodium bis(tridecyl) sulfosuccinate], the “% Epolight ™ 1117 Retention” value in data set [1] was 50%.
As to `CCCCCCCCCCCCOS(=O)(=O)[O-].[Na+]` [Sodium dodecyl sulfate, sodium dodecyl sulfate], in data set [1], the “% Epolight ™ 1117 Retention” value was 85-90%.
In the case of `Cc1cc(C(C)(C)C)c(O)c(C)c1Cn1c(=O)n(Cc2c(C)cc(C(C)(C)C)c(O)c2C)c(=O)n(Cc2c(C)cc(C(C)(C)C)c(O)c2C)c1=O` [Cyanox® 1790, 1,3,5-tris(4-tert-butyl-3-hydroxy-2,6-dimethylbenzyl)-1,3,5-triazine-2,4,6-(1H,3H,5H)-trione], the “impact on dye stability within the particles” value in data set [2] is “positive impact”.
Consider `COc1ccc(COC(=O)C2=C(CSc3ccc4c(c3)Oc3cc(SCC5=C(C(=O)OCc6ccc(OC)cc6)N6C(=O)[C@H](NC(=O)Cc7ccccc7)[C@@H]6SC5)ccc3C43OC(=O)c4ccccc43)CS[C@H]3[C@@H](NC(=O)Cc4ccccc4)C(=O)N23)cc1` [compound 4], for which, in the data set with chymotrypsin, the “color change after chymotrypsin addition” value was “almost no color change even after 30 minutes”. At papain, the “color change after papain addition” value is “slightly changed color to light brown”. In addition, the “color change with PBS (negative control, no enzyme)” value with β-lactamase blend (1.0 mg in 0.3 mL DMSO + 25 μL PBS) is listed as “did not change color at all”. For the same compound, in the data set with β-lactamase blend (setting [3]), the “color change after β-lactamase addition (onset)” value is reported as “started changing color from light yellow to brownish-red within a minute” and the “time to very strong color change after β-lactamase addition” value is reported as “less than 5 minutes”.
